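The compound was tested at five concentrations on cells cultured in 96-well plates, with a 48-hour exposure period. The concentration for 50% growth inhibition is given as GI50. TGI marks complete inhibition of growth.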
Experiments:
Test in all cases: NCI-60 cell line screen, 48 h; in the data active = GI50 below about 0.43 µM; inactive = the rest
SF-295 CNS = tested on: SF-295 CNS
SR leukemia = tested on: SR leukemia
SW-620 colon = tested on: SW-620 colon
SNB-75 CNS = tested on: SNB-75 CNS
MOLT-4 leukemia = tested on: MOLT-4 leukemia
SK-MEL-2 melanoma = tested on: SK-MEL-2 melanoma
DU-145 prostate = tested on: DU-145 prostate
A498 renal = tested on: A498 renal
HOP-92 NSCLC = tested on: HOP-92 NSCLC
NCI-H23 lung = tested on: NCI-H23 lung

C=C(C)[C@@H]1CCC=C2CC[C@]3(C)[C@H](CC[C@@H]4[C@@]5(C)CCCNC(C)(C)[C@@H]5CC[C@]43C)[C@H]21
3.94 µM: TGI (SNB-75 CNS)
3.57 µM: TGI (DU-145 prostate)
3.59 µM: TGI (SW-620 colon)
3.13 µM: TGI (SF-295 CNS)
26.9 µM: TGI (A498 renal)
3.65 µM: TGI (SR leukemia)
inactive: GI50 (SF-295 CNS) 1.69 µM | GI50 (SR leukemia) 1.25 µM | GI50 (SW-620 colon) 1.84 µM | GI50 (SNB-75 CNS) 1.67 µM | GI50 (MOLT-4 leukemia) 1.87 µM | GI50 (SK-MEL-2 melanoma) 2.34 µM | GI50 (DU-145 prostate) 1.86 µM | GI50 (A498 renal) 11.7 µM
5.5 µM: TGI (SK-MEL-2 melanoma)
4.09 µM: TGI (MOLT-4 leukemia)

Nc1ccn(C2CC(F)C(CO)O2)c(=O)n1 (stereo not drawn)
inactive: GI50 (HOP-92 NSCLC) > 100 µM | GI50 (SF-295 CNS) > 100 µM | GI50 (SR leukemia) > 100 µM | GI50 (SNB-75 CNS) > 100 µM | GI50 (NCI-H23 lung) > 100 µM | GI50 (MOLT-4 leukemia) > 100 µM | GI50 (SK-MEL-2 melanoma) > 100 µM | GI50 (DU-145 prostate) > 100 µM
> 100 µM: TGI (HOP-92 NSCLC) | TGI (SF-295 CNS) | TGI (SR leukemia) | TGI (SNB-75 CNS) | TGI (NCI-H23 lung) | TGI (MOLT-4 leukemia) | TGI (SK-MEL-2 melanoma) | TGI (DU-145 prostate)

CCCn1c2c(c3c(O)cccc31)C(=O)c1ccccc1-2
7.31 µM: TGI (MOLT-4 leukemia)
23.8 µM: TGI (SR leukemia)
inactive: GI50 (SF-295 CNS) 23 µM | GI50 (SW-620 colon) > 100 µM | GI50 (NCI-H23 lung) 11.5 µM | GI50 (SK-MEL-2 melanoma) 87 µM | GI50 (DU-145 prostate) 23.4 µM
67.8 µM: TGI (SF-295 CNS)
active: GI50 (SR leukemia) 0.0354 µM | GI50 (MOLT-4 leukemia) 0.0475 µM
> 100 µM: TGI (SW-620 colon) | TGI (NCI-H23 lung) | TGI (SK-MEL-2 melanoma) | TGI (DU-145 prostate)

Cn1cnc(N)c(N=O)c1=O
> 10 µM: TGI (SF-295 CNS) | TGI (SR leukemia) | TGI (SW-620 colon) | TGI (SNB-75 CNS) | TGI (NCI-H23 lung) | TGI (MOLT-4 leukemia) | TGI (SK-MEL-2 melanoma) | TGI (DU-145 prostate) | TGI (A498 renal)

COc1c(C(C)=O)c(OCCCCOc2c(C(C)=O)c(OC)c3ccoc3c2OC)c(OC)c2occc12
> 100 µM: TGI (SF-295 CNS) | TGI (SW-620 colon) | TGI (SNB-75 CNS) | TGI (NCI-H23 lung) | TGI (SK-MEL-2 melanoma) | TGI (DU-145 prostate) | TGI (A498 renal)
7.72 µM: TGI (SR leukemia)
inactive: GI50 (SF-295 CNS) 1.35 µM | GI50 (SW-620 colon) > 100 µM | GI50 (SNB-75 CNS) 8.72 µM | GI50 (NCI-H23 lung) 4.64 µM | GI50 (MOLT-4 leukemia) 1.23 µM | GI50 (SK-MEL-2 melanoma) 2.76 µM | GI50 (DU-145 prostate) > 100 µM | GI50 (A498 renal) > 100 µM
active: GI50 (SR leukemia) 0.258 µM
3.1 µM: TGI (MOLT-4 leukemia)

N#CC(CCN1CCC(Nc2ccccc2)(c2nnnn2C2CCCCC2)CC1)(c1ccccc1)c1ccccc1
> 100 µM: TGI (SF-295 CNS) | TGI (SR leukemia) | TGI (SW-620 colon) | TGI (SNB-75 CNS) | TGI (NCI-H23 lung) | TGI (MOLT-4 leukemia) | TGI (SK-MEL-2 melanoma) | TGI (DU-145 prostate) | TGI (A498 renal)

CCOc1ccc2c(-c3ccnc(Nc4cc(OC)cc(C(F)(F)F)c4)n3)cnn2n1
inactive: GI50 (SF-295 CNS) > 14.6 µM | GI50 (SR leukemia) 1.32 µM | GI50 (SW-620 colon) 13 µM | GI50 (SNB-75 CNS) 15.1 µM | GI50 (NCI-H23 lung) > 21.9 µM | GI50 (MOLT-4 leukemia) > 25 µM | GI50 (SK-MEL-2 melanoma) > 25 µM | GI50 (DU-145 prostate) > 18.9 µM | GI50 (A498 renal) > 25 µM
> 25 µM: TGI (SF-295 CNS) | TGI (SR leukemia) | TGI (SW-620 colon) | TGI (SNB-75 CNS) | TGI (NCI-H23 lung) | TGI (MOLT-4 leukemia) | TGI (SK-MEL-2 melanoma) | TGI (DU-145 prostate) | TGI (A498 renal)

O=C(/C=C(\O)C(=O)O)/C=C(\O)c1ccccc1
inactive: GI50 (HOP-92 NSCLC) > 1 µM | GI50 (SR leukemia) > 1 µM | GI50 (SNB-75 CNS) > 1 µM | GI50 (NCI-H23 lung) > 100 µM | GI50 (MOLT-4 leukemia) > 1 µM | GI50 (SK-MEL-2 melanoma) > 1 µM
> 1 µM: TGI (HOP-92 NSCLC)
> 100 µM: TGI (SF-295 CNS) | TGI (SR leukemia) | TGI (SW-620 colon) | TGI (NCI-H23 lung) | TGI (MOLT-4 leukemia) | TGI (SK-MEL-2 melanoma) | TGI (A498 renal)
> 54.9 µM: TGI (SNB-75 CNS)

COc1ccc2c(c1)[n+](=O)c(C(=O)c1cccs1)c(C(F)(F)F)n2[O-]
> 50 µM: TGI (SR leukemia) | TGI (SW-620 colon) | TGI (SNB-75 CNS) | TGI (MOLT-4 leukemia) | TGI (SK-MEL-2 melanoma)
49.5 µM: TGI (HOP-92 NSCLC)
inactive: GI50 (HOP-92 NSCLC) 7.91 µM | GI50 (SF-295 CNS) 2.89 µM | GI50 (SR leukemia) 0.775 µM | GI50 (SW-620 colon) 8.43 µM | GI50 (SNB-75 CNS) 9.11 µM | GI50 (NCI-H23 lung) 2.88 µM | GI50 (MOLT-4 leukemia) 24.9 µM | GI50 (SK-MEL-2 melanoma) 10.8 µM | GI50 (DU-145 prostate) 2.57 µM
16.5 µM: TGI (SF-295 CNS)
25.8 µM: TGI (NCI-H23 lung)
12.7 µM: TGI (DU-145 prostate)

O=c1[nH]c(=O)n(C2CC(O)C(CO)O2)cc1Oc1ccccc1 (stereo not drawn)
> 100 µM: TGI (SF-295 CNS) | TGI (SR leukemia) | TGI (SNB-75 CNS) | TGI (NCI-H23 lung) | TGI (MOLT-4 leukemia) | TGI (DU-145 prostate)

C=CC(=O)N1C/C(=C\c2ccc(Cl)c(Cl)c2)C(=O)/C(=C/c2ccc(Cl)c(Cl)c2)C1
0.262 µM: TGI (SW-620 colon)
0.38 µM: TGI (MOLT-4 leukemia)
0.891 µM: TGI (SF-295 CNS)
0.0648 µM: TGI (SR leukemia)
0.438 µM: TGI (NCI-H23 lung)
2.94 µM: TGI (HOP-92 NSCLC)
1.43 µM: TGI (SK-MEL-2 melanoma)
0.676 µM: TGI (SNB-75 CNS)
1.89 µM: TGI (A498 renal)

O=C(Oc1cccc(Cl)c1)c1ccccc1Nc1ccnc(C(F)(F)F)c1
45.5 µM: TGI (SF-295 CNS)
27.6 µM: TGI (DU-145 prostate)
inactive: GI50 (HOP-92 NSCLC) 8.74 µM | GI50 (SF-295 CNS) 18.3 µM | GI50 (SR leukemia) 0.434 µM | GI50 (SW-620 colon) 4.33 µM | GI50 (NCI-H23 lung) 2.41 µM | GI50 (MOLT-4 leukemia) 0.938 µM | GI50 (SK-MEL-2 melanoma) 15.7 µM | GI50 (DU-145 prostate) 14.2 µM
23.3 µM: TGI (SW-620 colon)
32.1 µM: TGI (HOP-92 NSCLC)
> 100 µM: TGI (SR leukemia) | TGI (MOLT-4 leukemia) | TGI (SK-MEL-2 melanoma)
8.26 µM: TGI (NCI-H23 lung)

CCOC(=O)NC(=O)c1cn(CCN2CCN(C(=O)CNC(=O)CNC(=O)Cn3cc(C(=O)NC(=O)OCC)c(=O)[nH]c3=O)CC2)c(=O)[nH]c1=O
> 100 µM: TGI (HOP-92 NSCLC) | TGI (SF-295 CNS) | TGI (SR leukemia) | TGI (SW-620 colon) | TGI (SNB-75 CNS) | TGI (NCI-H23 lung) | TGI (MOLT-4 leukemia) | TGI (SK-MEL-2 melanoma) | TGI (A498 renal)

From PubChem BioAssay (NCI)
